In patent US6737383B1, “Herbicidal oxadiazolidines” (priority 1999, dated 2004):

Columns and labels:
wheat = assay: Test B pre/postemergence wheat; type: in vivo, Triticum aestivum
In short: (§1)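 Test chemicals in a non-phytotoxic solvent mixture with surfactant were sprayed preemergence onto planted seeds and postemergence onto plants 2 to 18 cm tall (1- to 4-leaf stage). After twelve to sixteen days in a greenhouse, injury was visually rated against untreated controls from 0 (no effect) to 10 (complete control).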

sugar beet = assay: Test B pre/postemergence sugar beet; type: in vivo, Beta vulgaris
In short: as §1

surinam grass = assay: Test B pre/postemergence surinam grass; type: in vivo, Brachiaria decumbens
In short: as §1

soybean = assay: Test B pre/postemergence soybean; type: in vivo, Glycine max
In short: as §1

bedstraw = assay: Test B pre/postemergence bedstraw; type: in vivo, Galium aparine; conditions: for Bedstraw plant response rating: 10 is complete control
In short: as §1

cocklebur = assay: Test B pre/postemergence cocklebur; type: in vivo, Xanthium strumarium
In short: as §1

crabgrass = assay: Test B pre/postemergence crabgrass; type: in vivo, Digitaria sanguinalis
In short: as §1

giant foxtail = assay: Test B pre/postemergence giant foxtail; type: in vivo, Setaria faberii
In short: as §1

corn = assay: Test B pre/postemergence corn; type: in vivo, Zea mays
In short: as §1

morningglory = assay: Test B pre/postemergence morningglory; type: in vivo, Ipomoea hederacea
In short: as §1

pigweed = assay: Test B pre/postemergence pigweed; type: in vivo, Amaranthus retroflexus
In short: as §1

velvetleaf = assay: Test B pre/postemergence velvetleaf; type: in vivo, Abutilon theophrasti
In short: as §1

purple nutsedge = assay: Test B pre/postemergence purple nutsedge; type: in vivo, Cyperus rotundus
In short: as §1

wild oat = assay: Test B pre/postemergence wild oat; type: in vivo, Avena fatua
In short: as §1

blackgrass = assay: Test B pre/postemergence blackgrass; type: in vivo, Alopecurus myosuroides
In short: as §1

rape = assay: Test B pre/postemergence rape; type: in vivo, Brassica napus
In short: as §1

[1] = Postemergence, Rate 62 g/ha, scale of 0 to 10, 0 is no effect, 10 is complete control
[2] = Postemergence, Rate 125 g/ha, scale 0 to 10, 0 is no effect, 10 is complete control
[3] = Postemergence, Rate 500 g/ha, scale 0 to 10, 0 is no effect, 10 is complete control
[4] = Preemergence, Rate 62 g/ha, scale of 0 to 10 where 0 is no effect and 10 is complete control
[5] = Preemergence, Rate 125 g/ha, scale 0 to 10, 0 is no effect, 10 is complete control
[6] = Preemergence, Rate 500 g/ha, scale of 0 to 10 where 0 is no effect and 10 is complete control
[7] = Preemergence, Rate 250 g/ha, scale 0 to 10, 0 is no effect, 10 is complete control
[8] = Postemergence, Rate 250 g/ha, scale 0 to 10

CC(=O)C(C)n1c(=O)on(C(=O)N(c2ccc(F)cc2F)C(C)C)c1=O (stereo not shown) [Compound 517]
0: Wheat plant response rating (wheat; [1]) | Wheat plant response rating (wheat; [2]) | Plant response rating, Wheat (wheat; [4]) | Wheat plant response rating (wheat; [5]) | Sugarbeets plant response rating (sugar beet; [1]) | Sugarbeets plant response rating (sugar beet; [2]) | Plant response rating, Sugarbeets (sugar beet; [4]) | Sugarbeets plant response rating (sugar beet; [5]) | B. signalgrass plant response rating (surinam grass; [1]) | Plant response rating, B. signalgrass (surinam grass; [4]) | B. signalgrass plant response rating (surinam grass; [5]) | B. signalgrass plant response rating (surinam grass; [7]) | B. signalgrass plant response rating (surinam grass; Preemergence, Rate 500 g/ha, scale 0 to 10, 0 is no effect, 10 is complete control) | Soybean plant response rating (soybean; [1]) | Plant response rating, Soybean (soybean; [4]) | Soybean plant response rating (soybean; [5]) | Soybean plant response rating (soybean; [6]) | Plant response rating, Bedstraw (bedstraw; [4]) | Bedstraw plant response rating (bedstraw; Preemergence, Rate 125 g/ha, scale 0 to 10, 0 is no effect) | Bedstraw plant response rating (bedstraw; Preemergence, Rate 250 g/ha, scale 0 to 10, 0 is no effect) | Bedstraw plant response rating (bedstraw; Preemergence, Rate 500 g/ha, scale 0 to 10, 0 is no effect) | Cocklebur plant response rating (cocklebur; [1]) | Cocklebur plant response rating (cocklebur; [2]) | Cocklebur plant response rating (cocklebur; [8]) | Plant response rating, Cocklebur (cocklebur; [4]) | Cocklebur plant response rating (cocklebur; [5]) | Cocklebur plant response rating (cocklebur; [7]) | Cocklebur plant response rating (cocklebur; [6]) | Corn plant response rating (corn; [1]) | Corn plant response rating (corn; [2]) | Corn plant response rating (corn; [8]) | Plant response rating, Corn (corn; [4]) | Corn plant response rating (corn; [5]) | Plant response rating, Morningglory (morningglory; [4]) | Morningglory plant response rating (morningglory; [5]) | Morningglory plant response rating (morningglory; [6]) | Redroot pigweed plant response rating (pigweed; [1]) | Velvetleaf plant response rating (velvetleaf; [1]) | Velvetleaf plant response rating (velvetleaf; [2]) | Plant response rating, Velvetleaf (velvetleaf; [4]) | Velvetleaf plant response rating (velvetleaf; [5]) | Nutsedge plant response rating (purple nutsedge; [1]) | Nutsedge plant response rating (purple nutsedge; [2]) | Plant response rating, Nutsedge (purple nutsedge; [4]) | Nutsedge plant response rating (purple nutsedge; [5]) | Nutsedge plant response rating (purple nutsedge; [6]) | Wild oats plant response rating (wild oat; [1]) | Wild oats plant response rating (wild oat; [2]) | Blackgrass plant response rating (blackgrass; [1]) | Rape plant response rating (rape; [1]) | Rape plant response rating (rape; [2]) | Plant response rating, Rape (rape; [4]) | Rape plant response rating (rape; [5])
6: Wheat plant response rating (wheat; [6]) | B. signalgrass plant response rating (surinam grass; Postemergence, Rate 250 g/ha, scale 0 to 10, 0 no effect, 10 complete control) | Soybean plant response rating (soybean; [2]) | Plant response rating, Velvetleaf (velvetleaf; [3]) | Blackgrass plant response rating (blackgrass; [8]) | Plant response rating, Blackgrass (blackgrass; [3])
7: Bedstraw plant response rating (bedstraw; Postemergence, Rate 125 g/ha, scale 0 to 10, 0 is no effect) | Crabgrass plant response rating (crabgrass; [1]) | Crabgrass plant response rating (crabgrass; [2]) | Crabgrass plant response rating (crabgrass; [6]) | Plant response rating, Redroot pigweed (pigweed; [3])
5: Sugarbeets plant response rating (sugar beet; [6]) | Wild oats plant response rating (wild oat; [6])
8: Plant response rating, B. signalgrass (surinam grass; [3]) | Plant response rating, Soybean (soybean; [3]) | Crabgrass plant response rating (crabgrass; [8]) | Giant foxtail plant response rating (giant foxtail; [1]) | Giant foxtail plant response rating (giant foxtail; [2]) | Plant response rating, Redroot pigweed (pigweed; [4])
3: Plant response rating, Sugarbeets (sugar beet; [3]) | Giant foxtail plant response rating (giant foxtail; [5]) | Corn plant response rating (corn; [6]) | Velvetleaf plant response rating (velvetleaf; [6]) | Plant response rating, Wild oats (wild oat; [3]) | Blackgrass plant response rating (blackgrass; [2])
9: Plant response rating, Crabgrass (crabgrass; [3]) | Plant response rating, Giant foxtail (giant foxtail; [3]) | Redroot pigweed plant response rating (pigweed; [5])
2: Plant response rating, Giant foxtail (giant foxtail; [4]) | Morningglory plant response rating (morningglory; [1]) | Morningglory plant response rating (morningglory; [2]) | Plant response rating, Morningglory (morningglory; [3]) | Plant response rating, Blackgrass (blackgrass; [4]) | Blackgrass plant response rating (blackgrass; [5])
10: Giant foxtail plant response rating (giant foxtail; [6]) | Redroot pigweed plant response rating (pigweed; [6])
4: Plant response rating, Wheat (wheat; [3]) | B. signalgrass plant response rating (surinam grass; [2]) | Bedstraw plant response rating (bedstraw; Postemergence, Rate 62 g/ha, scale of 0 to 10, 0 is no effect) | Plant response rating, Cocklebur (cocklebur; [3]) | Plant response rating, Crabgrass (crabgrass; [4]) | Crabgrass plant response rating (crabgrass; [5]) | Plant response rating, Corn (corn; [3]) | Redroot pigweed plant response rating (pigweed; [2]) | Plant response rating, Wild oats (wild oat; [4]) | Wild oats plant response rating (wild oat; [5]) | Blackgrass plant response rating (blackgrass; [7]) | Blackgrass plant response rating (blackgrass; [6]) | Plant response rating, Rape (rape; [3]) | Rape plant response rating (rape; [6])
